Source: ChEMBL document CHEMBL1201862, “PubChem BioAssay data set” (2004)
Calls of active or inactive are those of the source.

How the values were obtained:
SUMO-activating enzyme [1] = biological target: T1, SUMO-activating enzyme (Homo sapiens, UniProt Q9UBT2); test: blockers of UBC9-mediated SUMO conjugation – biochemical, AlphaScreen, SUMOylation inhibitor project, confirmation (AID 2018); format: functional
[2] = biological target: T2, Small ubiquitin-related modifier 1 (Homo sapiens, UniProt P63165); test: SUMO1 protein-protein binding blockers, potency – biochemical, FRET, dose response (AID 624383); format: functional; settings: read-out: IC50_Mean
T2 sequence (P63165 whole entry): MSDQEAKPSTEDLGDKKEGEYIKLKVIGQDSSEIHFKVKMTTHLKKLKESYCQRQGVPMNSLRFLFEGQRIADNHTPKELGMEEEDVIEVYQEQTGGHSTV

Streptococcus = test: GAS UMAA2166 growth inhibition – luminescence, BacTiterGlo, counter-screen for streptokinase expression inhibitor project, dose response (AID 1915); format: functional, organism-based;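 further: potency for reduction of bacterial viability or growth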
[3] = test system: Streptococcus sp. 'group A'; test: Streptococcus pyogenes SK(-)GAS viability under kanamycin – luminescence, BacTiterGlo, confirmation, counter-screen for streptokinase expression inhibitor project, dose response (AID 1900); format: functional, organism-based
[4] = biological target: T2, Small ubiquitin-related modifier 1; test: SUMO1 protein interaction blockers, potency – biochemical, fluorescence polarization, uHTS hits, dose response (AID 624382); format: functional; settings: read-out: IC50_Mean
[5] = biological target: 26S proteasome non-ATPase regulatory subunit 14 (Homo sapiens, UniProt O00487); test: inhibition of proteasome subunit RPN11 – biochemical, fluorescence polarization, uHTS hits, confirmation (AID 602368); format: functional
Sequence of 26S proteasome non-ATPase regulatory subunit 14 (O00487 whole entry): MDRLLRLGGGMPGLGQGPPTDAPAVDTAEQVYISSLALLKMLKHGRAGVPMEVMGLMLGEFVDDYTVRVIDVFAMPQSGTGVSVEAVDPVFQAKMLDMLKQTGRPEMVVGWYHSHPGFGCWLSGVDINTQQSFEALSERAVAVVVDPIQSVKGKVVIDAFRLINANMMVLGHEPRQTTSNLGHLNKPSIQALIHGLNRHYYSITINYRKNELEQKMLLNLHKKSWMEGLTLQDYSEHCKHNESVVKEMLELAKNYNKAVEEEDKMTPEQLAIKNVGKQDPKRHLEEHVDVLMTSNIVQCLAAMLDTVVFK

SUMO-activating enzyme [6] = biological target: T1, SUMO-activating enzyme; test: blockers of SAE1/SAE2–UBC9 SUMO transfer – biochemical, HTRF, uHTS, primary screen (AID 2006); format: protein-complex assay
[7] = biological target: 72 kDa type IV collagenase (Homo sapiens, UniProt P08253); test: Dose Response validation of uHTS RPN11 inhibitor hits using a MMP-2 Fluorescence assay.; format: functional
Sequence of 72 kDa type IV collagenase (P08253 whole entry): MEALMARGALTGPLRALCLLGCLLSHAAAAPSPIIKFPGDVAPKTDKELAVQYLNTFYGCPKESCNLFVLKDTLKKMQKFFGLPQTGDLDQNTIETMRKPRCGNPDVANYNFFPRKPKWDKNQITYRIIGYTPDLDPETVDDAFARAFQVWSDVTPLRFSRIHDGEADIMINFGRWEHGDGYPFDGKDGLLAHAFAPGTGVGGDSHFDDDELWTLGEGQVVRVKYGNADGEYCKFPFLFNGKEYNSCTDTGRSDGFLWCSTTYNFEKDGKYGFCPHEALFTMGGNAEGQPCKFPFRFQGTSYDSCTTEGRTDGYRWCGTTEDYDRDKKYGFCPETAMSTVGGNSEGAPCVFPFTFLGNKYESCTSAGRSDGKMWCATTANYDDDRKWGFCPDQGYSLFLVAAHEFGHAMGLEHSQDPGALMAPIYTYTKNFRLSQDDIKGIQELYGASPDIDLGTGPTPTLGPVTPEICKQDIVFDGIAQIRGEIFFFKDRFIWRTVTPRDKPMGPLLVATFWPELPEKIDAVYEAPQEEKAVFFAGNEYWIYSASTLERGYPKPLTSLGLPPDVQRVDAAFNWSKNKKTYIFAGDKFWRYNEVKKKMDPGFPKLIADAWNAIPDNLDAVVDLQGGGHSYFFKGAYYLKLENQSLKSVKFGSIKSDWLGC

Streptokinase A = biological target: T3, Streptokinase A (Streptococcus pyogenes serotype M1, UniProt P10520); test: viability-normalized secreted streptokinase activity reduction – plasminogen activation absorbance, OD405, dose response (AID 1914); format: functional, Streptococcus pyogenes M1 GAS;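 further: secreted streptokinase activity via plasminogen activation per viability signal from cell pellet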
T3 sequence (P10520 whole entry): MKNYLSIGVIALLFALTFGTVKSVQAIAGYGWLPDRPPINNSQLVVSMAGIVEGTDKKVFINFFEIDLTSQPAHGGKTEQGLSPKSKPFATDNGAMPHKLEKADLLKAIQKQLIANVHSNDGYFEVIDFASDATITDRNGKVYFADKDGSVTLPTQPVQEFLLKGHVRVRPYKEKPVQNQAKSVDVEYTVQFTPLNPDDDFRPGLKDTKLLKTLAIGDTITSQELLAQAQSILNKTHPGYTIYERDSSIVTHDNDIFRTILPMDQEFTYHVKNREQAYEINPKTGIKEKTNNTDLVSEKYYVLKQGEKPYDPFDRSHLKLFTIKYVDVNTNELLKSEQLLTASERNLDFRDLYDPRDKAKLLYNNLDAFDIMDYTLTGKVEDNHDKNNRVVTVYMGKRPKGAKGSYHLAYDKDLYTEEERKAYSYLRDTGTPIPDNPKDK

Prothrombin = Prothrombin (Bos taurus, UniProt P00735); test: thrombin protease inhibitors – biochemical, fluorescence polarization, uHTS hits, dose response (AID 602369); format: functional
[8] = biological target: T4, Neuropeptides B/W receptor type 1 (Homo sapiens, UniProt P48145); test: human NPBW1 receptor blockade, IC50 – cell-based, fluorescence, dose response, set 5, late-stage follow-up (AID 588566); format: functional
T4 sequence (P48145 whole entry): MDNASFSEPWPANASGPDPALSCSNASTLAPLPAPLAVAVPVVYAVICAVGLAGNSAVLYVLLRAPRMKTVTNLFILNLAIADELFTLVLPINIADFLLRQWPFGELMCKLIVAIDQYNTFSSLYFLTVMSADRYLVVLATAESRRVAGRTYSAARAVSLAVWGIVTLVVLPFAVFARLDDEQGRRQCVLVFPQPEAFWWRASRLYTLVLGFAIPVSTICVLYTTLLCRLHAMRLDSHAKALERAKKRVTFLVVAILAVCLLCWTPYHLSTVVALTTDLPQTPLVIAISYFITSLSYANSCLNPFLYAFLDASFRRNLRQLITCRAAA

[9] = biological target: Melanin-concentrating hormone receptor 1 (Homo sapiens, UniProt Q99705); test: Late-stage fluorescence-based counterscreen for antagonists of the G-protein coupled receptor 7 (GPR7): cell-based dose response assay to identify antagonists of the melanin-concentrating hormone receptor 1 (MCHR1) Set 5.; format: functional
Sequence of Melanin-concentrating hormone receptor 1 (Q99705 whole entry): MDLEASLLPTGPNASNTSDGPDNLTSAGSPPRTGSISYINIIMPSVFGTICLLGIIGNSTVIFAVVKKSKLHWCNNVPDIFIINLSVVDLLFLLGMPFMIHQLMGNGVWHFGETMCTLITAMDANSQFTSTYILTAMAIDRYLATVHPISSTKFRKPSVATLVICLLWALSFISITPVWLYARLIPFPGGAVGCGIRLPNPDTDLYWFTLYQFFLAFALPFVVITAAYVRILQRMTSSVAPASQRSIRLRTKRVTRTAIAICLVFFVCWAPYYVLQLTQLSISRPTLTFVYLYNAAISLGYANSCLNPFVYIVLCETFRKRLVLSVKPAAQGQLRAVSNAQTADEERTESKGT

INS1 = test: INS-1E survival protection against cytokine death – cell-based, luminescence, retest, dose response (AID 449756); format: functional; settings: Rattus norvegicus;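 further: cell death triggered by IL-1 beta plus TNF-alpha plus IFN-gamma mixture; protective hits raise ATP signal compared with cytokine alone wells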
[10] = decrease of insulin promoter-GFP reporter – imaging, high-content screening, mouse beta cells (AID 1628); format: functional; settings: MIN6
[11] = alpha-synuclein stem-loop luciferase translation blockers – H4 neuroglioma cells, luminescence, confirmation (AID 1988); format: functional, cell-based
cells [12] = format: functional, cell-based
HEK293 = test: EBV LMP1 TES2 canonical NF-kB signalling blockers – cell-based, HEK293, luciferase, cherry-pick, dose response (AID 588343); format: functional; settings: Homo sapiens
[13] = Luminescence Cell-Based Dose Retest to Confirm Inhibitors of Cancer Stem Cells. [Related pubchem assays (depositor defined):AID2717, AID2721]; format: functional; settings: Homo sapiens
cells [14] = format: functional, cell-based; remark: listed apart in the source
[15] = Luminescence Cell-Based Dose Response HTS to Identify Inhibitors of 5'UTR Stem-Loop Driven Prion Protein mRNA Translation in H4 Neuroglioblastoma Cells. [Related pubchem assays: 1827 (Project Summary), 1813 (Primary HTS)]; format: functional
[16] = luciferase reporter signal suppression in cells – H4 neuroglioma cells, luminescence, dose response (AID 1990); format: functional, cell-based
[17] = MIN6 cell viability loss – mouse insulinoma, cytotoxicity control, dose response (AID 2122); format: functional;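 further: confirmatory high-throughput counterscreen run to flag cytotoxic compounds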
[18] = biological target: Latent membrane protein 1 (Human herpesvirus 4 (strain B95-8), UniProt P03230); test: LMP1 TES1 pathway selectivity over dsRED control – imaging, HEK293T, dual-color eGFP/dsRED, cherry-picks, selectivity assay for LMP1 NF-kB inhibitor project, dose response (AID 588398); format: functional, cell-based
Sequence of Latent membrane protein 1 (P03230 whole entry): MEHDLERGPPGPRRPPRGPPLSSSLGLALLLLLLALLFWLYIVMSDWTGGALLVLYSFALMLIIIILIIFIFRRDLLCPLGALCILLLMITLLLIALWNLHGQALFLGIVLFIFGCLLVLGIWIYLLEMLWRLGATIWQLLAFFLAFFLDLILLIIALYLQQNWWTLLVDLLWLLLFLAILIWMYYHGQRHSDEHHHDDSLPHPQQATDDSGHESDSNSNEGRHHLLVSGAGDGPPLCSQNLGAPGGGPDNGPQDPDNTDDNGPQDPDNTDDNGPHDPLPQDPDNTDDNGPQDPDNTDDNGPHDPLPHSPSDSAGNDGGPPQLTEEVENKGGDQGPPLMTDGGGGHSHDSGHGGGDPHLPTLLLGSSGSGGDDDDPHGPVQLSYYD

Aurora kinase B = Aurora kinase B (Homo sapiens, UniProt Q96GD4); format: functional
Sequence of Aurora kinase B (Q96GD4 whole entry): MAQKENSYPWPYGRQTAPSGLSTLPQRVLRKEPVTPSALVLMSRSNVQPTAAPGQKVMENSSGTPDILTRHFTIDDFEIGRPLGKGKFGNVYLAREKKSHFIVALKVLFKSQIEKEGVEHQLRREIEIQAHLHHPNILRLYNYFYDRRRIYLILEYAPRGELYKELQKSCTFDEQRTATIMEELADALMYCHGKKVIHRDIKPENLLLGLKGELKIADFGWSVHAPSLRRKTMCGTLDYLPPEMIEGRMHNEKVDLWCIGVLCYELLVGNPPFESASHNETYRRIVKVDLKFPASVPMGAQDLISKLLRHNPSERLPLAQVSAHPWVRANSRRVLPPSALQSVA

Aurora kinase A = Aurora kinase A (Homo sapiens, UniProt O14965); format: functional;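 further: value from the Navigating the Kinome kinase panel profiling, panel entry STK6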
Sequence of Aurora kinase A (O14965 whole entry): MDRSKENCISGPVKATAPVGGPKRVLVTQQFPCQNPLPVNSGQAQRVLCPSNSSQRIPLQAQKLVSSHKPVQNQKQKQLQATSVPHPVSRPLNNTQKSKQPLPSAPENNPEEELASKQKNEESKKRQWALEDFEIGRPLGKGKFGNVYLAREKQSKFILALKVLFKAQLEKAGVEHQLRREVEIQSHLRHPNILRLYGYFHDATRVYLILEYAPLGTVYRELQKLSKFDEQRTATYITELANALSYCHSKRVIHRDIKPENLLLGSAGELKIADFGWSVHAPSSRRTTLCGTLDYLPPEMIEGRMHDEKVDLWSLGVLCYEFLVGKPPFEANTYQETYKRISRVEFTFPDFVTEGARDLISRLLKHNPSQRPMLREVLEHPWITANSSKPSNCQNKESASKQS

[19] = biological target: Cyclin-dependent kinase 19 (Homo sapiens, UniProt Q9BWU1); test: Navigating the Kinome. Panel member name: CDC2L6; format: functional
Sequence of Cyclin-dependent kinase 19 (Q9BWU1 whole entry): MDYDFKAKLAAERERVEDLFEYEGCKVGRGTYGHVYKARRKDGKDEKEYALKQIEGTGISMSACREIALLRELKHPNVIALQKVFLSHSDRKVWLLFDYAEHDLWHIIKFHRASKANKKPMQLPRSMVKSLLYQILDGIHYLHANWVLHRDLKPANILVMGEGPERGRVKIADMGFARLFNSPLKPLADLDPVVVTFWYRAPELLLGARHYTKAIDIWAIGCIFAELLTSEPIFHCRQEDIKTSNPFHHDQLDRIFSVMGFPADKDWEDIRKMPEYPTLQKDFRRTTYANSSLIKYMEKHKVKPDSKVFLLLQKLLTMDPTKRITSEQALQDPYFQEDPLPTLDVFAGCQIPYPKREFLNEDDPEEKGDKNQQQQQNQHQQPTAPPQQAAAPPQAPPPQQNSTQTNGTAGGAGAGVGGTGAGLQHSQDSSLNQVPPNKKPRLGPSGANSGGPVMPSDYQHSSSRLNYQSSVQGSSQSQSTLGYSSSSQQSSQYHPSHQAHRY

[20] = biological target: Interleukin-1 receptor-associated kinase 4 (Homo sapiens, UniProt Q9NWZ3); format: functional
[21] = biological target: Serine/threonine-protein kinase PAK 1 (Homo sapiens, UniProt Q13153); format: functional
Sequence of Serine/threonine-protein kinase PAK 1 (Q13153 whole entry): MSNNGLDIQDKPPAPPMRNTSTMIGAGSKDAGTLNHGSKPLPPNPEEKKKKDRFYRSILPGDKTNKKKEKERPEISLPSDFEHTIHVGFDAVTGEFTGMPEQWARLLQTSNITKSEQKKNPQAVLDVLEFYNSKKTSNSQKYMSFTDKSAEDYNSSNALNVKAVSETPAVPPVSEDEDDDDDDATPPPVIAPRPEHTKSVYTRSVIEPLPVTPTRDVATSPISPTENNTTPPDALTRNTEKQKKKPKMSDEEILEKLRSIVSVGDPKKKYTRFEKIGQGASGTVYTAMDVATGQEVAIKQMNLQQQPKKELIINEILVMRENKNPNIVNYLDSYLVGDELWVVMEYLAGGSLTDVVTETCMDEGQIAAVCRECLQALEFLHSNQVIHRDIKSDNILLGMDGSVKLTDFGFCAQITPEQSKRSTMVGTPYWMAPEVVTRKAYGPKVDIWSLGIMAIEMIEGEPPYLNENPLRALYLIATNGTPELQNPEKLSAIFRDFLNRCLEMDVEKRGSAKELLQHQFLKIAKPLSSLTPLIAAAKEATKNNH

SRSF protein kinase 1 = SRSF protein kinase 1 (Homo sapiens, UniProt Q96SB4); format: functional;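 further: measured as one member of a kinome-wide kinase profiling panel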

T1 sequence (Q9UBE0 whole entry): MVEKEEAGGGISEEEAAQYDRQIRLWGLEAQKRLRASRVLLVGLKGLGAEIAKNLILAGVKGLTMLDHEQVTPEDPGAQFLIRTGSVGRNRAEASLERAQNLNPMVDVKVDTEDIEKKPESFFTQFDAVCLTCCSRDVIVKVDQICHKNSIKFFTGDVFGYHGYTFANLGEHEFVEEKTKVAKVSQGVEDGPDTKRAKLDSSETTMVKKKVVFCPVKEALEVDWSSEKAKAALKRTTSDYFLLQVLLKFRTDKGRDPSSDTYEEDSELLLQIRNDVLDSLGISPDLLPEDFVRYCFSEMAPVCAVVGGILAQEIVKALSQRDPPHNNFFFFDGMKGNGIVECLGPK
T1 sequence (Q9UBT2 whole entry): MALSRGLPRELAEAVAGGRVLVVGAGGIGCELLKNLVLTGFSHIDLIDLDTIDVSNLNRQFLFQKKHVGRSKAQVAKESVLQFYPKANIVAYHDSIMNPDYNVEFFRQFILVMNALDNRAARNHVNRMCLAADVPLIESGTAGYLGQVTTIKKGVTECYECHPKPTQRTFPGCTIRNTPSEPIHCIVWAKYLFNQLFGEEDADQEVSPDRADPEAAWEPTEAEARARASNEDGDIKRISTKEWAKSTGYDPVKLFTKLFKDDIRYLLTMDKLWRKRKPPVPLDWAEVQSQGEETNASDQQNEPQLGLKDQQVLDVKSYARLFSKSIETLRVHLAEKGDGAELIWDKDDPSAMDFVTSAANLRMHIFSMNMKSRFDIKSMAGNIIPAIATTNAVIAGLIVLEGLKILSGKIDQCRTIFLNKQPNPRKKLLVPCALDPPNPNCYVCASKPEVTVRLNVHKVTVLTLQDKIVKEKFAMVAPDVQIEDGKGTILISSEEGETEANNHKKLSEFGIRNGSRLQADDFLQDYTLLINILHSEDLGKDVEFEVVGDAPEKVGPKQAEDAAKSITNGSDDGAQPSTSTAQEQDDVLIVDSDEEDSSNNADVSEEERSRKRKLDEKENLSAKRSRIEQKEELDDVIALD

For `Sc1nnc(-c2cc(-c3ccccc3)[nH]n2)n1/N=C/c1ccc(Br)s1`, the IC50 (SUMO-activating enzyme [1]) was 6.99 µM (active), the IC50 [2] was 7.25 µM (active) and the EC50 (Streptococcus) was > 150 µM (not active). For the same compound, the EC50 [3] was 14.6 µM (active), the IC50 [4] was > 66.6 µM (inactive) and the IC50 [5] was 14.5 µM (active). For the same compound, the IC50 (SUMO-activating enzyme [6]) was 10.3 µM (active), the IC50 [7] was > 100 µM (inactive) and the EC50 (Streptokinase A) was > 150 µM (not active). For the same compound, the IC50 (Prothrombin) was 32.9 µM (active).
With `Cc1cccc(C(C#N)c2c(Cl)cnn(Cc3cccc4ccccc34)c2=O)c1` (centres undefined) the IC50 [8] was 0.379 µM (active) and the IC50 [9] was 18.8 µM (inactive).
With `CCOC(=O)c1c(C)[nH]c(C(=O)N/N=C\c2ccccc2O)c1C` the AC50 (INS1) was 1.69 µM (active), the IC50 [10] was 2.25 µM (active) and the EC50 [11] was 8.44 µM (active). For the same compound, the EC50 (cells [12]) was 41.9 µM (active), the AC50 (HEK293) was 4.91 µM (active) and the AC50 [13] was 3.54 µM (active). For the same compound, the EC50 (cells [14]) was 6.77 µM (active), the EC50 [15] was > 120 µM (not active) and the EC50 [16] was > 120 µM (not active). The IC50 [17] was 1.99 µM (active) and the AC50 [18] was 14.6 µM (active).
For `Cc1oc2ncnc(N)c2c1-c1ccc(NC(=O)Nc2cccc(C(F)(F)F)c2)cc1`, the Ki (Aurora kinase B) was 0.0126 µM (active), the Ki (Aurora kinase A) was 0.0794 µM (active) and the Ki [19] was 3.98 µM (active).
For `Cc1ccc(C2(c3ccc(C)cc3)CC2C(=O)Nc2ccncc2)cc1` (centres undefined), the Ki [20] was > 10 µM (inactive), the Ki [21] was > 10 µM (inactive) and the Ki (SRSF protein kinase 1) was 2.51 µM (active).
